From PubChem BioAssay AID256 (DTP/NCI, 2004)
“And” between values parts separate entries of the source, which are not always exact repeats. Identical values can stand only once. Toxic doses and inconclusive results are not listed.

System: CD2F1 mice, L1210 leukemia ip, survival T/C
Test: NCI In Vivo Anticancer Drug Screen. Data for tumor model L1210 Leukemia (intraperitoneal) in CD2F1 (CDF1) mice
Details: higher = longer survival
Summary of the method: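 Vehicle-treated tumor-bearing mice served as controls (C) for compound-treated mice (T). Reported figure is T divided by C.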

[1] = endpoint: mean survival time, dose: 25.0 mg/kg/injection, schedule: Q04DX003 (ip), vehicle: saline
[2] = endpoint: mean survival time, dose: 100.0 mg/kg/injection, schedule: Q04DX003 (ip), vehicle: other
[3] = endpoint: mean survival time, dose: 200.0 mg/kg/injection, schedule: Q04DX003 (ip), vehicle: other
[4] = endpoint: mean survival time, dose: 0.78 mg/kg/injection, schedule: Q01DX009 (ip), vehicle: saline
[5] = endpoint: mean survival time, dose: 100.0 mg/kg/injection, schedule: Q01DX009 (ip), vehicle: saline with Tween-80
[6] = endpoint: mean survival time, dose: 200.0 mg/kg/injection, schedule: Q01DX009 (ip), vehicle: saline with Tween-80
[7] = endpoint: mean survival time, dose: 400.0 mg/kg/injection, schedule: Q01DX009 (ip), vehicle: saline with Tween-80
[8] = endpoint: mean survival time, dose: 100.0 mg/kg/injection, schedule: Q04DX003 (ip), vehicle: saline with Tween-80
[9] = endpoint: mean survival time, dose: 200.0 mg/kg/injection, schedule: Q04DX003 (ip), vehicle: saline with Tween-80
[10] = endpoint: mean survival time, dose: 400.0 mg/kg/injection, schedule: Q04DX003 (ip), vehicle: saline with Tween-80

[Cl][Pt][Cl].[NH-]C(CC(N)=O)C(=O)O (stereo unspecified)
T/C (endpoint: median survival time, dose: 3.12 mg/kg/injection, schedule: Q04DX003 (ip), vehicle: water): 109 % of control | T/C (endpoint: median survival time, dose: 6.25 mg/kg/injection, schedule: Q04DX003 (ip), vehicle: water): 108 % of control | T/C (endpoint: median survival time, dose: 12.5 mg/kg/injection, schedule: Q04DX003 (ip), vehicle: water): 101 % of control | T/C (endpoint: median survival time, dose: 25.0 mg/kg/injection, schedule: Q04DX003 (ip), vehicle: water): 106 % of control | T/C (endpoint: median survival time, dose: 50.0 mg/kg/injection, schedule: Q04DX003 (ip), vehicle: water): 118 % of control | T/C (endpoint: median survival time, dose: 100.0 mg/kg/injection, schedule: Q04DX003 (ip), vehicle: water): 110 % of control

CCOC(=O)C(=O)c1c[nH]c2ccccc12
T/C (endpoint: mean survival time, dose: 100.0 mg/kg/injection, schedule: Q01DX009 (ip), vehicle: saline sonified): 89 % of control | T/C (endpoint: mean survival time, dose: 200.0 mg/kg/injection, schedule: Q01DX009 (ip), vehicle: saline sonified): 95 % of control | T/C (endpoint: mean survival time, dose: 400.0 mg/kg/injection, schedule: Q01DX009 (ip), vehicle: saline sonified): 94 % of control

S=C([SH2+])[SH2+].S=C([SH2+])[SH2+].[Pt+2].c1ccc(C[P+](c2ccccc2)(c2ccccc2)c2ccccc2)cc1
T/C (endpoint: mean survival time, dose: 12.0 mg/kg/injection, schedule: Q04DX003 (ip), vehicle: saline): 87 % of control | T/C [1]: 100 % of control | T/C (endpoint: mean survival time, dose: 50.0 mg/kg/injection, schedule: Q04DX003 (ip), vehicle: saline): 94 % of control

O=C(Nc1c[nH]c(=O)[nH]c1=O)C(Cl)Cl
T/C [2]: 109 % of control | T/C [3]: 94 % of control

CN(C)C(=O)OC1CCCC1[N+](C)(C)CCCCCCCC[N+](C)(C)C1CCCC1OC(=O)N(C)C (stereo unspecified)
T/C (endpoint: mean survival time, dose: 0.19 mg/kg/injection, schedule: Q01DX009 (ip), vehicle: saline): 104 % of control | T/C (endpoint: mean survival time, dose: 0.31 mg/kg/injection, schedule: Q04DX003 (ip), vehicle: saline): 100 % of control | T/C (endpoint: mean survival time, dose: 0.39 mg/kg/injection, schedule: Q01DX009 (ip), vehicle: saline): 104 % of control | T/C (endpoint: mean survival time, dose: 0.62 mg/kg/injection, schedule: Q04DX003 (ip), vehicle: saline): 98 % of control | T/C [4]: 98 % of control

C/C=C/CC1CCCCC1C (stereo unspecified)
T/C (endpoint: mean survival time, dose: 50.0 mg/kg/injection, schedule: Q01DX009 (ip), vehicle: saline with Tween-80): 96 % of control | T/C [5]: 96 % of control | T/C [6]: 108 % of control

CCC1(CC)CO1
T/C [5]: 104 % of control | T/C (endpoint: mean survival time, dose: 100.0 mg/kg/injection, schedule: Q04DX003 (ip), vehicle: saline): 96 % of control | T/C [6]: 93 % of control | T/C (endpoint: mean survival time, dose: 200.0 mg/kg/injection, schedule: Q04DX003 (ip), vehicle: saline): 94 % of control | T/C [7]: 97 % of control | T/C (endpoint: mean survival time, dose: 400.0 mg/kg/injection, schedule: Q04DX003 (ip), vehicle: saline): 98 % of control

CCC/C=C(\C#N)C(=O)OC
T/C (endpoint: mean survival time, dose: 75.0 mg/kg/injection, schedule: Q01DX001 (ip), vehicle: saline): 97 % of control

CN(C)N=Nc1ccc([N+](=O)[O-])cc1
T/C (endpoint: mean survival time, dose: 50.0 mg/kg/injection, schedule: Q01DX009 (ip), vehicle: Klucel (hydroxypropylcellulose) (HPC)): 98 % of control | T/C (endpoint: mean survival time, dose: 79.0 mg/kg/injection, schedule: Q01DX009 (ip), vehicle: Klucel (hydroxypropylcellulose) (HPC)): 102 % of control | T/C (endpoint: mean survival time, dose: 100.0 mg/kg/injection, schedule: Q01DX009 (ip), vehicle: Klucel (hydroxypropylcellulose) (HPC)): 102 % of control | T/C (endpoint: mean survival time, dose: 118.0 mg/kg/injection, schedule: Q01DX009 (ip), vehicle: Klucel (hydroxypropylcellulose) (HPC)): 108 % of control | T/C (endpoint: mean survival time, dose: 177.0 mg/kg/injection, schedule: Q01DX009 (ip), vehicle: Klucel (hydroxypropylcellulose) (HPC)): 120 % of control | T/C (endpoint: mean survival time, dose: 200.0 mg/kg/injection, schedule: Q01DX009 (ip), vehicle: Klucel (hydroxypropylcellulose) (HPC)): 108 % of control

O=C1C=C(c2ccc(O)cc2)CO1
T/C [8]: 97 % of control | T/C [9]: 94 % of control | T/C [10]: 97 % of control

CCCC[n+]1ccccc1Cc1ccccc1
T/C [1]: 101 % of control

Brc1ccc2c(c1)CCCC2
T/C [8]: 95 % of control | T/C [9]: 103 % of control | T/C [10]: 93 % of control

CSc1nc(Cl)c2cc(C)[nH]c2n1
T/C (endpoint: median survival time, dose: 50.0 mg/kg/injection, schedule: Q01DX005 (ip), vehicle: saline): 98 % of control | T/C (endpoint: median survival time, dose: 100.0 mg/kg/injection, schedule: Q01DX005 (ip), vehicle: saline): 100 % of control | T/C (endpoint: median survival time, dose: 200.0 mg/kg/injection, schedule: Q01DX005 (ip), vehicle: saline): 94 % of control

CC(=O)c1c(C)cc(=O)[nH]c1C
T/C (endpoint: mean survival time, dose: 100.0 mg/kg/injection, schedule: Q04DX002 (ip), vehicle: saline with Tween-80): 96 % of control | T/C (endpoint: mean survival time, dose: 200.0 mg/kg/injection, schedule: Q04DX002 (ip), vehicle: saline with Tween-80): 96 % of control | T/C (endpoint: mean survival time, dose: 400.0 mg/kg/injection, schedule: Q04DX002 (ip), vehicle: saline with Tween-80): 100 % of control

Cc1ccc(S(=O)(=O)N/N=C/c2ccc(O)c(O)c2)cc1
T/C (endpoint: mean survival time, dose: 12.5 mg/kg/injection, schedule: Q04DX003 (ip), vehicle: other): 101 % of control | T/C (endpoint: mean survival time, dose: 25.0 mg/kg/injection, schedule: Q04DX003 (ip), vehicle: other): 98 % of control | T/C (endpoint: mean survival time, dose: 50.0 mg/kg/injection, schedule: Q04DX003 (ip), vehicle: other): 101 % of control | T/C [2]: 101 % of control | T/C [3]: 95 % of control | T/C (endpoint: mean survival time, dose: 400.0 mg/kg/injection, schedule: Q04DX003 (ip), vehicle: other): 101 % of control

COC(=O)Nc1cccc(OC(=O)N(C)C)c1
T/C [5]: 97 % of control | T/C [6]: 97 % of control | T/C [7]: 96 % of control

N=C(N)CCCCCCCCC(=N)N
T/C [4]: 162 % of control | T/C (endpoint: mean survival time, dose: 1.56 mg/kg/injection, schedule: Q01DX009 (ip), vehicle: saline): 96 % of control | T/C (endpoint: mean survival time, dose: 3.12 mg/kg/injection, schedule: Q01DX009 (ip), vehicle: saline): 104 % of control | T/C (endpoint: mean survival time, dose: 6.25 mg/kg/injection, schedule: Q01DX009 (ip), vehicle: saline): 106 % of control | T/C (endpoint: mean survival time, dose: 12.5 mg/kg/injection, schedule: Q01DX009 (ip), vehicle: saline): 115 % of control

CCCCN(N=O)C(=O)Nc1ccc(C2CC(=O)N(C)C2=O)cc1 (stereo unspecified)
T/C (endpoint: mean survival time, dose: 12.5 mg/kg/injection, schedule: Q01DX001 (ip), vehicle: distilled water + Tween-80): 103 % of control | T/C (endpoint: mean survival time, dose: 25.0 mg/kg/injection, schedule: Q01DX001 (ip), vehicle: distilled water + Tween-80): 99 % of control | T/C (endpoint: mean survival time, dose: 50.0 mg/kg/injection, schedule: Q01DX001 (ip), vehicle: distilled water + Tween-80): 112 % of control | T/C (endpoint: mean survival time, dose: 100.0 mg/kg/injection, schedule: Q01DX001 (ip), vehicle: distilled water + Tween-80): 112 % of control | T/C (endpoint: mean survival time, dose: 200.0 mg/kg/injection, schedule: Q01DX001 (ip), vehicle: distilled water + Tween-80): 120 % of control

O=C(CCCl)c1ccccc1
T/C (endpoint: mean survival time, dose: 25.0 mg/kg/injection, schedule: Q01DX009 (ip), vehicle: other): 104 % of control | T/C (endpoint: mean survival time, dose: 50.0 mg/kg/injection, schedule: Q01DX009 (ip), vehicle: other): 100 % of control | T/C (endpoint: mean survival time, dose: 100.0 mg/kg/injection, schedule: Q01DX009 (ip), vehicle: other): 92 % of control and 96 % of control

CN(N=O)C(=O)NCC1CCC(CNC(=O)N(C)N=O)CC1 (stereo unspecified)
T/C (endpoint: mean survival time, dose: 100.0 mg/kg/injection, schedule: Q01DX001 (ip), vehicle: carboxymethylcellulose (CMC)): 96 % of control | T/C (endpoint: mean survival time, dose: 200.0 mg/kg/injection, schedule: Q01DX001 (ip), vehicle: carboxymethylcellulose (CMC)): 88 % of control and 98 % of control | T/C (endpoint: mean survival time, dose: 300.0 mg/kg/injection, schedule: Q01DX001 (ip), vehicle: carboxymethylcellulose (CMC)): 98 % of control and 93 % of control | T/C (endpoint: mean survival time, dose: 400.0 mg/kg/injection, schedule: Q01DX001 (ip), vehicle: carboxymethylcellulose (CMC)): 101 % of control and 108 % of control | T/C (endpoint: mean survival time, dose: 500.0 mg/kg/injection, schedule: Q01DX001 (ip), vehicle: carboxymethylcellulose (CMC)): 106 % of control and 107 % of control | T/C (endpoint: mean survival time, dose: 600.0 mg/kg/injection, schedule: Q01DX001 (ip), vehicle: carboxymethylcellulose (CMC)): 104 % of control | T/C (endpoint: mean survival time, dose: 800.0 mg/kg/injection, schedule: Q01DX001 (ip), vehicle: carboxymethylcellulose (CMC)): 111 % of control | T/C (endpoint: mean survival time, dose: 1000.0 mg/kg/injection, schedule: Q01DX001 (ip), vehicle: carboxymethylcellulose (CMC)): 112 % of control

CCc1ccccc1NC(=O)/C=C/C(=O)O
T/C [5]: 102 % of control | T/C [8]: 98 % of control | T/C [6]: 100 % of control | T/C [7]: 102 % of control | T/C [10]: 92 % of control

CC(CN=Cc1ccccc1[O-])N=Cc1ccccc1[O-].[O]=[V] (stereo unspecified)
T/C (endpoint: mean survival time, dose: 5.0 mg/kg/injection, schedule: Q04DX003 (ip), vehicle: saline with Tween-80): 90 % of control | T/C (endpoint: mean survival time, dose: 10.0 mg/kg/injection, schedule: Q04DX003 (ip), vehicle: saline with Tween-80): 94 % of control | T/C (endpoint: mean survival time, dose: 20.0 mg/kg/injection, schedule: Q04DX003 (ip), vehicle: saline with Tween-80): 90 % of control
